In US10772859B2, “Methods of targeting APE/Ref-1 to inhibit hypoxia signaling genes” (Indiana University Research and Technology Corporation, priority 2015, dated 2020):
Like-named read-outs stand apart in the source and are kept apart here.

Tests used:
[1] = test system: PDAC tumor spheroids (Pa03C and Panc10.05) alone and with CAFs; test: Three-dimensional growth assay, PDAC/CAF co-culture (Example 2); format: cell-based, human; conditions: tumor spheroids alone and in culture with CAFs
Experimental: Ninety-six well plates were coated with 1% Noble Agar (Difco) (50 μL/well). mCherry-labeled PDAC cells and EGFP-labeled CAFs were resuspended in normal growth media containing 3% Matrigel (BD Biosciences) at a cell ratio of 1:4 (tumor:CAF) and plated on top of solidified 1% Noble Agar. Cells were fed on Days 4 and 8 following plating with media containing 5% serum+3% Matrigel+investigational drug.
Utilizing APX3330, JAK 2 inhibitor (Ruxolitinib (INCB018424; Fisher Scientific) (“RUX”)) and lead STATS inhibitors (PG-S3-001, DR-4-89), the effects of Ref-1/STAT3 inhibition in PDAC low passage patient-derived cell lines (Pa03C and Panc10.05) were evaluated. The response using proliferation-based 3D co-culture assays and statistical analyses to assess synergy, additively or antagonism was evaluated using the Chou-Talalay method.
This Example was designed to visualize the same live co-cultures over 12 days with images captured by Thermo ArrayScan at 8 and 12 days of co-culture. Cancer and stromal cells in this model were marked with distinct fluorescent proteins (mCherry for tumor and EGFP for CAFs) so that the cell populations could be differentiated and quantified. […] In this way, drug efficacy of PDAC cells could be evaluated in co-culture with CAFs, which more faithfully mimics the natural in vivo PDAC environment.

Pa02C cells = test: Alamar Blue cell proliferation in monolayer under hypoxia; format: cell-based, human; conditions: hypoxia (0.2%) for six days, single agent
Experimental: Cell Proliferation: PDAC cell proliferation in monolayer was measured using the Alamar Blue assay as described in Fishel, Wu et al. (2015) J Biol Chem 290(5): 3057-3068. Cells treated with APX3330 and SLC-0111 were exposed to hypoxia for six days followed by addition of Alamar Blue reagent (Invitrogen) and subsequent fluorescence analysis. Fold change refers to the fluorescence reading for cells treated with indicated inhibitors compared to cells growing in normal media.

CA9 protein = test: Western blot of CA9 protein in 3D tumor spheroid cultures with or without CAFs; format: cell-based, human; conditions: Pa03C 3D tumor cultures, in the presence and absence of CAF cells
Experimental: Western Blot Analysis: Western blots were performed as described in Wang, Luo et al. (2004) Mol Cancer Ther 3(6): 679-686; Fishel, He et al. (2008) DNA Repair (Amst) 7(2): 177-186; Fishel, Colvin et al. (2010) Hematol 38(12): 1178-1188; Jiang, Zhou et al. (2010) Cancer Investigation 28(9): 885-895; Fishel, Jiang et al. (2011) Molecular Cancer Therapeutics 10(9): 1698-1708; Cardoso, Jiang et al. (2012) PLoS ONE 10: e47462; Fishel, Wu et al. (2015) J Biol Chem 290(5): 3057-3068, with antibodies for APE1/Ref-1 (Novus Biologicals; Littleton, Colo.), HIF1α (GeneTex; Irvine, Calif.), STAT1, STATS, (Cell Signaling; Danvers, Mass.), NFκB (abcam; Cambridge, Mass.), CA9 (Santa Cruz; Dallas, Tex.) and Vinculin (Sigma; St. Louis, Mo.).
3D Co-Cultures: Ultra low attachment 96-well plates (Corning Inc., Life Sciences) were used to generate 3-dimensional tumor spheroids in the presence and absence of CAFs (75 μL/well) as described previously (Sempere, Gunn et al. (2011) Cancer Biol Ther 12(3): 198-207; Arpin, Mac et al. (2015) Molecular Cancer Therapeutics). […] On Day 12, spheroids were analyzed using Thermo ArrayScan high-content imaging system (Lovborg, Nygren et al. (2004) Mol Cancer Ther 3(5): 521-526; Lindblom, Berg et al. (2012) Toxicol Pathol 40(1): 18-32). […]

[2] = test system: Pa03C and Panc10.05 tumor spheroids with or without CAFs; test: 3D co-culture tumor spheroid model (Example 1); format: cell-based, human; conditions: for tumor cell killing (reduction in area of tumor cells): 3D spheroids, 12 days in culture, with and without CAFs
Experimental: 3D Co-Cultures: Ultra low attachment 96-well plates (Corning Inc., Life Sciences) were used to generate 3-dimensional tumor spheroids in the presence and absence of CAFs (75 μL/well) as described previously (Sempere, Gunn et al. (2011) Cancer Biol Ther 12(3): 198-207; Arpin, Mac et al. (2015) Molecular Cancer Therapeutics). Cells were stably transduced with EGFP (green) or TdTomato (red) as indicated to preserve the genetic characteristics of the low passage patient cells (Jones, Zhang et al. (2008) Science 321(5897): 1801-1806). Cells were re-suspended in colorless DMEM growth media containing 3% Reduced Growth Factor Matrigel (RGF, BD Biosciences) and 5% FBS. Following plating, cells were treated on Days 4 and 8 with media containing 5% serum, 3% RGF Matrigel, and inhibitors as indicated. On Day 12, spheroids were analyzed using Thermo ArrayScan high-content imaging system (Lovborg, Nygren et al. (2004) Mol Cancer Ther 3(5): 521-526; Lindblom, Berg et al. (2012) Toxicol Pathol 40(1): 18-32). Images of 3D structures were captured by ArrayScan using a 2.5× objective for TdTomato and EGFP; then 2D projections were processed to quantify differences in total intensity and total area of both CAFs and tumor.

CA9 mRNA [3] = conditions: Panc-1 and MIA-PaCa2 cells exposed to hypoxia, previously shown; cited from earlier work
CA9 mRNA [4] = test: qRT-PCR of CA9 mRNA levels under hypoxia; format: cell-based, human; conditions: 24 hours of exposure to APX3330 and 1% oxygen
Experimental: qRT-PCR Reactions: qRT-PCR was used to measure the mRNA expression levels of CA9 as described in Fishel, Jiang et al. (2011) Molecular Cancer Therapeutics 10(9): 1698-1708. Cells were treated with APE1/Ref-1 siRNA or increasing amounts of APX3330 in the presence or absence of hypoxia (1% and 0.2% O2) for 24 hours, then total RNA was extracted from cells using the QiagenRNeasy Mini kit (Valencia, Calif.). First-strand cDNA synthesis and quantitative PCR were performed as described in Fishel, Vasko et al. (2007) Mutat Res 614(1-2): 24-36; Jiang, Guo et al. (2009) DNA Repair (Amst) 8(11): 1273-1282; Fishel, Jiang et al. (2011) Molecular Cancer Therapeutics 10(9): 1698-1708. The relative quantitative mRNA level was determined using the comparative Ct method using 18S rRNA, RPLPO, and B2M as reference genes (Livak and Schmittgen (2001) Methods 25(4): 402-408; Fishel, Vasko et al. (2007) Mutat Res 614(1-2): 24-36; Jiang, Guo et al. (2009) DNA Repair (Amst) 8(11): 1273-1282). The primers for CA9, 18S, RPLPO, and B2M are commercially available (Applied Biosystems).

PDAC = test: Single-agent STAT3 inhibitor activity in vivo (FIG. 14)

Row | Structure (SMILES) | killing of tumor spheroids [1] | PDAC cell proliferation (Pa02C cells) | CA9 expression (protein) (CA9 protein) | tumor cell killing (reduction in area of tumor cells) [2] | CA9 mRNA levels (CA9 mRNA [3]) | CA9 mRNA levels (CA9 mRNA [4]; Pa03C cells) | CA9 mRNA levels (CA9 mRNA [4]; pancreatic CAF cells) | activity in vivo (PDAC) | cell killing in tumor cells versus CAFs ([2]; 3D co-culture, especially CAF19 with Pa03C)
1 | CCCCCCCCCC(=CC1=C(C)C(=O)C(OC)=C(OC)C1=O)C(=O)O [APX3330] | effectively killed both tumor spheroids alone and in culture with CAFs | dose-dependent decrease | decreased CA9 expression in 3D tumor cultures in a dose-dependent manner | decrease in tumor cell area | decreases | attenuated in a dose-dependent manner | attenuated in a dose-dependent manner | – | –
2 | CC(C)C(C(=O)N(Cc1ccc(C2CCCCC2)cc1)c1ccc(C(=O)O)cc1)N(C)S(=O)(=O)c1c(F)c(F)c(F)c(F)c1F (centres unmarked) [PG-S3-001, reference compound] | effectively killed both tumor spheroids alone and in culture with CAFs | – | – | – | – | – | – | some activity was observed in vivo | –
3 | NS(=O)(=O)c1ccc(NC(=O)Nc2ccc(F)cc2)cc1 [SLC-0111] | – | – | – | dramatic effects on tumor cell killing observed at lower doses than in a monolayer | – | – | – | – | more dramatic in the tumor cells than in the CAFs
